Reference: patent publication US10723766B2, “Derivatives of gamma-amanitin” (Heidelberg Pharma Research GmbH, priority 2015, dated 2020)

Tests used:
[1] = target: RNA-polymerase II (Homo sapiens, UniProt P24928); conditions: not covalently bound, very tight complex; read-out: KD of complex between amanitin and RNA-polymerase II; cited from earlier work
[2] = test system: SKOV3 cells; test: viability of SKOV3 cells treated with amatoxins (FIG. 3); format: cell-based
[3] = Zanotti et al., 1989; cited from earlier work

In the case of amanitin, the Kd [1] is given as 3 nM.

For CC[C@H](C)[C@@H]1NC(=O)CNC(=O)C2Cc3c([nH]c4cc(O)ccc34)[S@+]([O-])CC(NC(=O)CNC1=O)C(=O)N[C@@H](CC(N)=O)C(=O)N1CC(O)C[C@H]1C(=O)N[C@@H]([C@@H](C)[C@H](C)O)C(=O)N2 (stereo partly drawn) [γ-amanitin (4), γ-amanitin], the EC50 [2] was 270 nM.

In the case of “S-deoxo-γ(R)-hydroxy-isoleucin-amaninamide”, the biological activity [3] is given as “biologically inactive”.
